Reference: patent publication US7211577B2, “Water-soluble phenylpyridazine derivative and medicine containing the same” (Kowa Co., Ltd., priority 2003, dated 2007)

SMILES	melting point
CC(C)Cn1nc(-c2ccc(F)c(F)c2)cc(CN2CCNCC2)c1=O.Cl.Cl	182.5 to 186 °C
CC(C)Cn1nc(-c2ccc(F)c(F)c2)cc(CN2CCN(C)CC2)c1=O.Cl.Cl	242.5 to 243.4 °C
CC(C)Cn1nc(-c2ccc(F)c(F)c2)cc(CN(C)C)c1=O.Cl	226.5 to 227.7 °C
Cc1cc(-c2cc(CN3CCNCC3)c(=O)n(Cc3ccccc3)n2)ccc1F.Cl.Cl	162.7 to 180.7 °C (dec.)
Cc1cc(-c2cc(CN(C)C)c(=O)n(Cc3ccccc3)n2)ccc1F.Cl	225.3 to 226 °C
Cc1cc(-c2cc(CN(C)C)c(=O)n(CC=Cc3ccccc3)n2)ccc1F.Cl	183.6 to 184.5 °C
Cc1cc(-c2cc(CN3CCNCC3)c(=O)n(CC=Cc3ccc(Cl)cc3)n2)ccc1F.Cl.Cl	186.7 to 197 °C (dec.)
Cc1cc(-c2cc(CN(C)C)c(=O)n(CC=Cc3ccc(Cl)cc3)n2)ccc1F.Cl	201.3 to 201.9 °C
CSc1ccc(-c2cc(CN3CCNCC3)c(=O)n(CC(C)C)n2)cc1.Cl.Cl	248.5 to 253.7 °C (dec.)
CSc1ccc(-c2cc(CN3CCN(C)CC3)c(=O)n(CC(C)C)n2)cc1.Cl.Cl	242.6 to 243.7 °C
CC(C)Cn1nc(-c2ccc([S+](C)[O-])cc2)cc(CN2CCN(C)CC2)c1=O.Cl.Cl (stereo not drawn)	224.5 to 229.1 °C (dec.)
CC(C)Cn1nc(-c2ccc([S+](C)[O-])cc2)cc(CN(C)C)c1=O.Cl (stereo not drawn)	204.2 to 206 °C
CN(C)Cc1cc(-c2ccc(S(C)(=O)=O)cc2)nn(CC2CC2)c1=O.Cl	239.5 to 240.7 °C
CC(C)Cn1nc(-c2ccc(S(C)(=O)=O)cc2)cc(CN2CCNCC2)c1=O.Cl.Cl	222.4 to 224.2 °C
CC(C)Cn1nc(-c2ccc(S(C)(=O)=O)cc2)cc(CN2CCN(C)CC2)c1=O.Cl.Cl	224.5 to 228 °C
Cc1cc(-c2cc(CN3CCN(C)CC3)c(=O)n(Cc3ccccc3Cl)n2)ccc1F.Cl.Cl	191 to 202 °C (dec.)
COc1ccc(-c2cc(CN3CCNCC3)c(=O)n(CC(C)C)n2)cc1F.Cl.Cl	163 to 177 °C (dec.)
COc1ccc(-c2cc(CN(C)C)c(=O)n(CC(C)C)n2)cc1F.Cl	212.4 to 212.8 °C

SMILES	melting point
CC(C)Cn1nc(-c2ccccc2)cc(CN2CCN(C)CC2)c1=O.Cl.Cl	243.8 to 244.3 °C
Cc1ccc(-c2cc(CN3CCN(C)CC3)c(=O)n(CC(C)C)n2)cc1F.Cl.Cl	248.5 to 252 °C (dec.)
Cc1c(-c2ccc(C(F)(F)F)cc2)nn(CC(C)C)c(=O)c1N1CCN(C)CC1.Cl.Cl	249.9 to 252.8 °C
CC(C)Cn1nc(-c2ccc(C(F)(F)F)cc2)cc(CN(C)C)c1=O.Cl	242.2 to 242.3 °C
CC(C)Cn1nc(-c2ccc(-c3ccccc3)cc2)cc(CN2CCNCC2)c1=O.Cl.Cl	226.8 to 228 °C
CC(C)Cn1nc(-c2ccc(-c3ccccc3)cc2)cc(CN2CCN(C)CC2)c1=O.Cl.Cl	262.2 to 263.6 °C
COc1ccc(-c2cc(CN3CCNCC3)c(=O)n(CC(C)C)n2)cc1Cl.Cl.Cl	203.6 to 204.5 °C
COc1ccc(-c2cc(CN(C)C)c(=O)n(CC(C)C)n2)cc1Cl.Cl	213.6 to 214.3 °C
COc1ccc(-c2cc(CN3CCNCC3)c(=O)n(CC3CC3)n2)cc1F [Example 20, 2-cyclopropylmethyl-6-(3-fluoro-4-methoxyphenyl)-4-(1-piperazinyl)methyl-2H-pyridazin-3-one]	111.5 to 118 °C
Cc1ccc(-c2cc(CN)c(=O)n(CC(C)C)n2)cc1 [Example 50, 4-aminomethyl-2-isobutyl-6-(4-methylphenyl)-2H-pyridazin-3-one]	74.9 to 77.9 °C
Cc1ccc(-c2cc(CNC(CO)CO)c(=O)n(CC(C)C)n2)cc1 [Example 52, 4-(1,3-dihydroxypropan-2-yl)aminomethyl-2-isobutyl-6-(4-methylphenyl)-2H-pyridazin-3-one]	134.1 to 135.2 °C
COc1ccc(-c2cc(CN3CCNCC3)c(=O)n(Cc3ccc(F)cc3)n2)cc1F [Example 192, 2-(4-fluorobenzyl)-6-(3-fluoro-4-methoxyphenyl)-4-(1-piperazinyl)methyl-2H-pyridazin-3-one]	142 to 143 °C
COc1ccc(-c2cc(CN)c(=O)n(Cc3ccc(F)cc3)n2)cc1F [Example 194, 4-aminomethyl-2-(4-fluorobenzyl)-6-(3-fluoro-4-methoxyphenyl)-2H-pyridazin-3-one]	145 to 149 °C
COc1ccc(-c2cc(CN)c(=O)n(CCCc3ccc(F)cc3)n2)cc1F [Example 200, 4-aminomethyl-6-(3-fluoro-4-methoxyphenyl)-2-[3-(4-fluorophenyl)propyl]-2H-pyridazin-3-one]	82 to 84 °C
COc1ccc(-c2cc(CN(C)C)c(=O)n(Cc3ccc(Cl)cc3)n2)cc1F [Example 203, 2-(4-chlorobenzyl)-4-dimethylaminomethyl-6-(3-fluoro-4-methoxyphenyl)-2H-pyridazin-3-one]	95.3 to 96.7 °C
COc1ccc(-c2cc(CN)c(=O)n(Cc3ccc(Cl)cc3)n2)cc1F [Example 205, 4-aminomethyl-2-(4-chlorobenzyl)-6-(3-fluoro-4-methoxyphenyl)-2H-pyridazin-3-one]	128.5 to 131.4 °C
COc1ccc(-c2cc(CN(C)C)c(=O)n(Cc3ccc(F)c(F)c3)n2)cc1F [Example 208, 2-(3,4-difluorobenzyl)-4-dimethylaminomethyl-6-(3-fluoro-4-methoxyphenyl)-2H-pyridazin-3-one]	129.9 to 130.4 °C

Next, values leading:

melting point	SMILES
240 to 242.5 °C (dec.)	Cc1cc(-c2cc(CN3CCN(C)CC3)c(=O)n(Cc3ccccc3)n2)ccc1F.Cl.Cl
171.1 to 187.1 °C (dec.)	Cc1cc(-c2cc(CN3CCNCC3)c(=O)n(CC=Cc3ccccc3)n2)ccc1F.Cl.Cl
236.1 to 237.1 °C	Cc1cc(-c2cc(CN3CCN(C)CC3)c(=O)n(CC=Cc3ccccc3)n2)ccc1F.Cl.Cl
80 °C (dec.)	CN1CCN(Cc2cc(-c3ccc([S+](C)[O-])cc3)nn(CC3CC3)c2=O)CC1.Cl.Cl (stereo not drawn)
209 to 211.4 °C	CN1CCN(Cc2cc(-c3ccc(S(C)(=O)=O)cc3)nn(CC3CC3)c2=O)CC1.Cl.Cl
221.4 to 223.3 °C	CC(C)Cn1nc(-c2ccc(S(C)(=O)=O)cc2)cc(CN(C)C)c1=O.Cl
186.2 to 195 °C (dec.)	Cc1ccc(-c2cc(CN3CCNCC3)c(=O)n(CC(C)C)n2)cc1F.Cl.Cl
246.4 to 249.7 °C (dec.)	Cc1cc(-c2cc(CN3CCN(C)CC3)c(=O)n(Cc3ccc(Cl)cc3)n2)ccc1F.Cl.Cl
201.9 to 206.4 °C	Cc1cc(-c2cc(CN)c(=O)n(Cc3ccccc3Cl)n2)ccc1F.Cl
236.9 to 237 °C	COc1ccc(-c2cc(CN3CCN(C)CC3)c(=O)n(CC(C)C)n2)cc1F.Cl.Cl
154.3 to 159.5 °C	Cc1c(-c2ccccc2)nn(CC(C)C)c(=O)c1N1CCNCC1.Cl.Cl
221.7 to 222.3 °C	CC(C)Cn1nc(-c2ccccc2)cc(CN(C)C)c1=O.Cl
210.8 to 212.5 °C	CC(C)Cn1nc(-c2ccc(C(F)(F)F)cc2)cc(CN2CCNCC2)c1=O.Cl.Cl
243.9 to 244.1 °C	CC(C)Cn1nc(-c2ccc(-c3ccccc3)cc2)cc(CN(C)C)c1=O.Cl
235.8 to 236.7 °C	COc1ccc(-c2cc(CN3CCN(C)CC3)c(=O)n(CC(C)C)n2)cc1Cl.Cl.Cl
246.5 to 248.5 °C	Cc1ccc(-c2cc(CN(C)C)c(=O)n(CC(C)C)n2)cc1F.Cl [Example 8, 4-dimethylaminomethyl-6-(3-fluoro-4-methylphenyl)-2-isobutyl-2H-pyridazin-3-one hydrochloride]
169.1 to 170.7 °C	CNCc1cc(-c2ccc(OC)c(F)c2)nn(CC2CC2)c1=O [Example 9, 2-cyclopropylmethyl-6-(3-fluoro-4-methoxyphenyl)-4-methylaminomethyl-2H-pyridazin-3-one]
216.8 to 218.4 °C	CSc1ccc(-c2cc(CN(C)C)c(=O)n(CC(C)C)n2)cc1.Cl [Example 161, 4-dimethylaminomethyl-2-isobutyl-6-[4-(methylthio)phenyl]-2H-pyridazin-3-one hydrochloride]
197.5 to 198.4 °C	C#CCNCc1cc(-c2ccc(SC)cc2)nn(CC(C)C)c1=O.Cl [Example 163, 2-isobutyl-6-[4-(methylthio)phenyl]-4-propargylaminomethyl-2H-pyridazin-3-one hydrochloride]
112 to 113 °C	COc1ccc(-c2cc(CN3CCN(C)CC3)c(=O)n(Cc3ccc(F)cc3)n2)cc1F [Example 189, 2-(4-fluorobenzyl)-6-(3-fluoro-4-methoxyphenyl)-4-(4-methyl-1-piperazinyl)methyl-2H-pyridazin-3-one]
127 to 129 °C	COc1ccc(-c2cc(CN(C)C)c(=O)n(Cc3ccc(F)cc3)n2)cc1F [Example 190, 4-dimethylaminomethyl-2-(4-fluorobenzyl)-6-(3-fluoro-4-methoxyphenyl)-2H-pyridazin-3-one]
97 to 100 °C	COc1ccc(-c2cc(CN(C)C)c(=O)n(CCCc3ccc(F)cc3)n2)cc1F [Example 197, 4-dimethylaminomethyl-6-(3-fluoro-4-methoxyphenyl)-2-[3-(4-fluorophenyl)propyl]-2H-pyridazin-3-one]
135.4 to 136 °C	COc1ccc(-c2cc(CN3CCN(C)CC3)c(=O)n(Cc3ccc(F)c(F)c3)n2)cc1F [Example 207, 2-(3,4-difluorobenzyl)-6-(3-fluoro-4-methoxyphenyl)-4-(4-methyl-1-piperazinyl)methyl-2H-pyridazin-3-one]
123.9 to 125.5 °C	COc1ccc(-c2cc(CN3CCN(C)CC3)c(=O)n(CC=Cc3ccc(Cl)cc3)n2)cc1F [Example 209, 2-(4-chlorocinnamyl)-6-(3-fluoro-4-methoxyphenyl)-4-(4-methyl-1-piperazinyl)methyl-2H-pyridazin-3-one]
133.3 to 133.8 °C	Cc1cc(-c2cc(CN3CCN(C)CC3)c(=O)n(Cc3ccc(Cl)cc3)n2)ccc1F [Example 222, 2-(4-chlorobenzyl)-6-(4-fluoro-3-methylphenyl)-4-(4-methyl-1-piperazinyl)methyl-2H-pyridazin-3-one]
